Measurements from patent US9163020B2, “Azaindole compounds, synthesis thereof, and methods of using the same” (Global Alliance for TB Drug Development, priority 2013, dated 2015).
In brackets after ≈: the same amount, converted by molar mass. Like-named read-outs stand apart in the source and are kept apart here.

How the values were obtained:
[1] = system: hypoxia induced non-replicating persistent (NRP) Mtb cells; test: Activity against hypoxia induced non-replicating persistent (NRP) Mtb (HBC, Wayne model); assay type: cell-based, Mycobacterium tuberculosis; details: hypoxic conditions, Wayne model; Table 4
in vivo [2] = details: male, Wistar, rat, po, 100 mg/kg
hERG [3] = biological target: T1, hERG (Homo sapiens, UniProt Q12809)
T1 sequence (Q12809 whole entry): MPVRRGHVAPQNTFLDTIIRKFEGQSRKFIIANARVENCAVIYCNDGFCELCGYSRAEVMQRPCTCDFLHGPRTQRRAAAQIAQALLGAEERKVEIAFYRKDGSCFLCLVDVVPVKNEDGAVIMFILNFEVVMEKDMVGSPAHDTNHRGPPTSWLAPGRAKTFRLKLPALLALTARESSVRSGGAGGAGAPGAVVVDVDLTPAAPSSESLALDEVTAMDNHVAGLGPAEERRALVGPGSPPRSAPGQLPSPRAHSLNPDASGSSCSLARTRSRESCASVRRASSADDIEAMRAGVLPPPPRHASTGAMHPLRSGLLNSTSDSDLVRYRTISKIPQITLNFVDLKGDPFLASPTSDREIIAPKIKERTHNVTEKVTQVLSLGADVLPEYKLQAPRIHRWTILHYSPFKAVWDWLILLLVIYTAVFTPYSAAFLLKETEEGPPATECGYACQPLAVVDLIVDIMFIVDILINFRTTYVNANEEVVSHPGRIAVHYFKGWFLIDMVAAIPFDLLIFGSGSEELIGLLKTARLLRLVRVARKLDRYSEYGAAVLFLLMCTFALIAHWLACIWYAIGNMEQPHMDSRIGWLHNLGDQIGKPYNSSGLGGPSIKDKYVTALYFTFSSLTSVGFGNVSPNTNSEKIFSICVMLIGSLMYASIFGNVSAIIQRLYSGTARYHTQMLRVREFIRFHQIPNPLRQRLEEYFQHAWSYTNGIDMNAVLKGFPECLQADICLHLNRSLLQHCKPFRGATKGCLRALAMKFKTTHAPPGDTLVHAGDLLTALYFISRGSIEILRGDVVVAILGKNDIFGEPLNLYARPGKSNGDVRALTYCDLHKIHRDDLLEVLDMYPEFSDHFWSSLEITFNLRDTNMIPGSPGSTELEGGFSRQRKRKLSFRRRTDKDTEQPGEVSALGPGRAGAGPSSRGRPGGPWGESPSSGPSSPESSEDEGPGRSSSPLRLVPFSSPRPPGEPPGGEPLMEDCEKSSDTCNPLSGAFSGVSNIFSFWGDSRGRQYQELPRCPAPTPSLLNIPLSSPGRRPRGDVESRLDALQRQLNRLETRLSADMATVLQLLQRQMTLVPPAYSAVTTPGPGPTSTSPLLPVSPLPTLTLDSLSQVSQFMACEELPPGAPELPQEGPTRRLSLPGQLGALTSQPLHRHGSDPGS
Method: (§1) Compounds were tested on voltage-gated ion channels using the medium-throughput electrophysiology IonWorks™ device. […] For carrying out the experiment, a boat in the “Cells” position of the IonWorks™ instrument was loaded with the cell suspension, and a 96-well PBS destination plate was placed in the “Plate 1” position. A 384-well PatchPlate™ was placed in the IonWorks™ plenum and held in position using the plenum clamp. From this point the experiment progress is automated and ultimately reports a non-cumulative concentration-effect curve for test compound.

[4] = system: CYP1A2, CYP2C9, CYP2C19, CYP2D6, CYP3A4
[5] = system: Mycobacterium tuberculosis (Mtb) H37Rv; test: Mtb minimal bactericidal concentration (MBC), plating from MIC plates; assay type: cell-based; details: Table 4, read-out: Mtb MBC
Method: Aliquots from sample wells (MIC and higher) from the MIC plates were diluted 1:10 and plated on 7H10 agar plates. Plates were incubated at 37° C. for 3-4 weeks, CFU was enumerated.

[6] = system: A549 human lung carcinoma cells; assay type: cell-based
Method: The in vitro cytotoxicity of compounds were measured against A549 human lung carcinoma cells as describedin Eakin et. al (2012). Briefly, A549 cells (ATCC) were grown in RPMI medium (GIBCO-BRL) containing 10% heat-inactivated fetal bovine serum (GIBCO-BRL) and 1 mM L-glutamine (GIBCO-BRL) at a density of 1,000 cells/well. After incubation of the cells with compound in a CO2 atmosphere at 37° C. for 72 hours, cell viability was determined following addition of […] of resazurin solution (Sigma), by measuring fluorescence (excitation at 535 nm, emission at 590 nm) using a fluorimeter.

[7] = pH 7.4
Method: Octanol-water partition coefficient (Log D) based on the shake-flask principle has been measured as follows. The aqueous solution used was 10 mM sodium phosphate buffer pH 7.4. 20 μL of 10 mM compound dissolved in DMSO was taken in glass vial plate. DMSO was removed using GeneVac. 435 μL of octanol was added using Tomtec, stirred for 5 min to dissolve. Further mixing was done by inversion for 5 h at 25° C., subsequently centrifuged for 30 min at 3000 RPM. LC/UV/APPI/MS quantitation of both aqueous and octanol layers was carried out. Log D value was determined according to the following equation.

in vivo [8] = test: in vivo
Method: PK of azaindoles compounds was performed in mice (healthy and infected) and rats. Mice were pretreated with 100 mg/kg ABT two hours prior to the compound administration. PK data from healthy mice was used to design the dosing regimen for the efficacy study while, information from infected mice was used for the PK-PD analysis.
All oral administration was performed as suspensions in 0.5% HPMC, and 0.1% Tween 80. […] All blood samples were collected via sapheneous vein into Microvette CB300® (Starstedt, Germany) tubes coated with Lithium-Heparin, and plasma was prepared from the collected blood by centrifugation.
One mg/mL stock solution of each compound was prepared in Dimethylsulfoxide (DMSO) and diluted two-fold with acetonitrile. A sixteen point calibration curve was utilized for each analyte, and the standard curves ranged from 0.001 to 40 μg/mL. Plasma/BAL samples were precipitated by adding chilled acetonitrile (1:10 v/v) containing carbamazepine as internal standard (250 ng/mL). Samples were vortexed, and centrifuged at 4000 rpm for 30 min at 10° C. The resulting supernatant was mixed with mobile phase (50% acetonitrile in water with 0.1% formic acid). […] of sample was injected on to a liquid chromatographic system (Waters-ACQUTY UPLC) coupled to triple quadrupole mass spectrometer (Waters-ACQUTY-TQD; MS/MS). Samples were acquired in positive ion mode and detected by multiple reaction monitoring (MRM). Concentrations of the analyte were determined from a standard curve obtained by plotting known concentrations of the analyte against peak area ratios (analyte/internal standard peak response).
PK analysis of the plasma concentration-time relationships were performed with WinNonlin Phoenix Software (version 6.2; Pharsight, USA). […] The maximum concentration of drug in plasma (Cmax), time to Cmax (Tmax), elimination half-life (t1/2), and AUC from time zero to infinity (AUC0-∞) were estimated. […] Minimum of three sample points in the terminal slope were used to estimate to calculate half-life.

[9] = assay type: in vitro ADME; details: for Human CLpred microsomes (% LBF): pH 7.4
Method: 1 μM compound was incubated with 1 mg/mL of microsomes (Pooled HLM/MLM with 20 mg/ml protein cone.) at 37° C. in 166 μL of buffer (100 mM phosphate buffer, pH-7.4) containing 2 mM NADPH solution. […] The quench plate was centrifuged at 4000 rpm for 15 min. 30 μL of supernatant was diluted to 300 μL with 50% acetonitrile in water and substrate depletion was analyzed using LC-MS/MS.

[10] = Method: Viability of cryopreserved hepatocytes was determined using trypan blue and the cell conc. was adjusted to 10^6 cells per mL with buffer (KHB buffer). 1 μM compound (in Acetonitrile; 0.01% DMSO) was incubated with 500 μL of hepatocyte cells (1 million cells per mL) in a NUNC plate. […] Supernatants were analyzed using LC-MS/MS for substrate depletion.
in vitro [11] = assay type: in vitro ADME; details: plasma
Method: Protein binding is measured using the equilibrium dialysis technique. Compound is added to 10% plasma giving a concentration of 20 μM and dialysed with isotonic buffer for 18 hours at 37° C. The plasma and buffer solutions are analysed using generic LCUVMS and the first apparent binding constant for the compound derived. The binding constant is then used to determine the % free in 100% plasma.

in vitro [12] = assay type: in vitro ADME; details: pH 7.4; mouse microsomes; read-out: Mo micrsomal Clint
Method: 1 μM compound was incubated with 1 mg/mL of microsomes (Pooled HLM/MLM with 20 mg/ml protein cone.) at 37° C. in 166 μL of buffer (100 mM phosphate buffer, pH-7.4) containing 2 mM NADPH solution. 20 μL of incubation mix was quenched with 4 volumes chilled acetonitrile at different time points i.e. 0, 2, 5, 10, 20 and 30 min in a fresh 96 well plate. The quench plate was centrifuged at 4000 rpm for 15 min. 30 μL of supernatant was diluted to 300 μL with 50% acetonitrile in water and substrate depletion was analyzed using LC-MS/MS.

physchem = assay type: physicochemical; details: 25 °C, pH 7.4, aqueous buffer, thermodynamic from solid
Method: Solubility of the compounds in 0.1M phosphate buffer, pH 7.4 was determined as described, Glyburide was used as QC standard in the assay. Briefly, compounds were diluted in ACN/water (40:60) to desired concentration, samples were dried using Genevac for 4 hrs and subsequently 800 μl of buffer was added. Compound containing plates were stirred for 24 hrs at 25° C. on Eppendorf Thermomix R at 750 rpm. Finally, compound concentration was estimated using UV and MS analysis.

[13] = system: Mycobacterium tuberculosis (Mtb) H37Rv ATCC 27294; test: microbe, parasite or virus in culture; assay type: cell-based; details: Mycobacterium tuberculosis, read-out: Mtb MIC
[14] = system: panel of human targets and cardiac channels
hERG [15] = biological target: T1, hERG; test: hERG assay, IonWorks electrophysiology
Method: as §1

[16] = Wistar, rat, in vivo, po, 30 mg/kg
[17] = Wistar, rat, in vivo, iv, 2 mg/kg
[18] = Wistar, rat, in vivo, po, 20 mg/kg

**Q.** What does the source list for `COc1ncnc(Cn2cc(C(=O)NCCF)c3ncc(C)cc32)c1C` [Compound 8, N-(2-fluoroethyl)-1-((6-methoxy-5-methylpyrimidin-4-yl)methyl)-6-methyl-1H-pyrrolo[3,2-b]pyridine-3-carboxamide]?
**A.** Mtb HBC [1]: 100 µM; AUC(0-inf) (in vivo [2]): 98.4 ± 31.9 µM·h; Cmax (in vivo [2]): 11.9 ± 3 µM; Tmax (in vivo [2]): 1.5 ± 0.6 h; half-life (in vivo [2]): 7.2 ± 1.3 h; hERG (hERG [3]): >33 µM; CYP inhibition ([4]; human): >50 µM; MBC [5]: < 0.39 µM; MMIC (A549) ([6]; human, 72 h): >100 µM; logD [7]: 2.6; AUC(0-inf) (in vivo [8]; BALB/c, mouse, po, 30 mg/kg): 64.2 µM·h; Cmax (in vivo [8]; BALB/c, mouse, po, 30 mg/kg): 13.4 µM; Tmax (in vivo [8]; BALB/c, mouse, po, 30 mg/kg): 2 h; half-life (in vivo [8]; BALB/c, mouse, po, 30 mg/kg): 4.15 h; AUC(0-inf) (in vivo [8]; [16]): 29.3 µM·h; Cmax (in vivo [8]; [16]): 3.69 µM; Tmax (in vivo [8]; [16]): 4.5 h; half-life (in vivo [8]; [16]): 3.58 h; Human CLpred microsomes (% LBF) [9]: 10.1 % LBF; Human CLpred hepatocytes (% LBF) ([10]; 1 μM): 4.3 % LBF; Rat CLpred hepatocytes (% LBF) ([10]; 1 μM): 14.9 % LBF; fraction unbound at 18 h, 20 μM (in vitro [11]; human): 0.05 to 0.22; Human PPB (% free) (in vitro [11]): 5 % free; microsomal CLint (in vitro [12]): 108 µL/min/mg; solubility (physchem): 4 µM (≈ 1.43 µg/mL); MIC ([13]; Table 1): < 0.53 µM; MIC ([13]; Table 4): < 0.39 µM; Secondary pharmacology hits IC50 [14]: No significant hits; in vitro safety profiling [14]: no major safety liabilities

**Q.** With `COc1ncnc(Cn2cc(C(=O)NCCO)c3ncc(C)cc32)c1C` [Compound 17, N-(2-hydroxyethyl)-1-((6-methoxy-5-methylpyrimidin-4-yl)methyl)-6-methyl-1H-pyrrolo[3,2-b]pyridine-3-carboxamide] as the compound, how does the “Mtb HBC” value [1] read?
**A.** The value was >100 µM.

**Q.** And the AUC(0-inf) (in vivo [2])?
**A.** The AUC(0-inf) was 986 ± 274 µM·h.

**Q.** And the Cmax (in vivo [2])?
**A.** The Cmax was 46.1 ± 7.7 µM.

**Q.** What about the Tmax (in vivo [2]) of the same compound?
**A.** Its Tmax is 5.3 ± 1.2 h.

**Q.** What about the half-life (in vivo [2]) of the same compound?
**A.** Its half-life is 3.8 ± 0.6 h.

**Q.** What about the CYP inhibition ([4]; CYP1A2, CYP2C9, CYP2C19, CYP2D6, CYP3A4) of the same compound?
**A.** The CYP inhibition was >50 µM.

**Q.** And the MBC [5]?
**A.** Its MBC is 0.78 to 1.56 µM (≈ 0.277 to 0.554 µg/mL).

**Q.** What about the “MMIC (A549)” value ([6]; 72 hours treatment, Table 4) of the same compound?
**A.** Its value is >100 µM.

**Q.** What about the AUC(0-inf) (in vivo [8]; BALB/c, mouse, po, 50 mg/kg) of the same compound?
**A.** The AUC(0-inf) was 420 ± 23.5 µM·h.

**Q.** And the Cmax (in vivo [8]; BALB/c, mouse, po, 50 mg/kg)?
**A.** Its Cmax is 74.8 ± 15.6 µM.

**Q.** And the Tmax (in vivo [8]; BALB/c, mouse, po, 50 mg/kg)?
**A.** Its Tmax is 1.33 ± 0.58 h.

**Q.** What about the half-life (in vivo [8]; BALB/c, mouse, po, 50 mg/kg) of the same compound?
**A.** The half-life was 1.78 ± 0.1 h.

**Q.** And the C0h (in vivo [8]; Wistar rats, IV 2 mg/kg, n = 2)?
**A.** Its C0h is 2.64 µM.

**Q.** What about the F (in vivo [8]; Wistar rats, oral 20 mg/kg, n = 2) of the same compound?
**A.** Its F is 100%.

**Q.** And the AUC(0-t) (in vivo [8]; [17])?
**A.** Its AUC(0-t) is 3.46 µM·h.

**Q.** What about the Vd (in vivo [8]; [17]) of the same compound?
**A.** The Vd was 7.34 L/kg.

**Q.** What about the clearance (in vivo [8]; [17]) of the same compound?
**A.** Its clearance is 27.4 mL/min/kg.

**Q.** And the bioavailability (in vivo [8]; Wistar, rat, in vivo, po)?
**A.** Its bioavailability is 92%.

**Q.** What about the AUC(0-inf) (in vivo [8]; [18]) of the same compound?
**A.** Its AUC(0-inf) is 59.8 µM·h.

**Q.** What about the Cmax (in vivo [8]; [18]) of the same compound?
**A.** Its Cmax is 17.8 µM.

**Q.** And the Tmax (in vivo [8]; [18])?
**A.** The Tmax was 0.5 h.

**Q.** And the half-life (in vivo [8]; [18])?
**A.** The half-life was 2.74 h.

**Q.** And the predicted clearance ([9]; human, rat)?
**A.** Its predicted clearance is 4-18 % of liver blood flow (% LBF).

**Q.** And the “Human CLpred microsomes (% LBF)” value [9]?
**A.** The value was 16.1 % LBF.

**Q.** What about the hERG (hERG [15]) of the same compound?
**A.** The hERG was >33 µM.

**Q.** What about the “Human CLpred hepatocytes (% LBF)” value [10] of the same compound?
**A.** The value was 9.2 % LBF.

**Q.** What about the “Rat CLpred hepatocytes (% LBF)” value [10] of the same compound?
**A.** Its value is 17.9 % LBF.

**Q.** What about the microsomal CLint (in vitro [12]) of the same compound?
**A.** Its microsomal CLint is 25 µL/min/mg.

**Q.** And the MIC ([13]; Table 1)?
**A.** The MIC was 1.56 µM (≈ 0.554 µg/mL).

**Q.** And the MIC ([13]; Table 4)?
**A.** The MIC was 1.56 to 3.12 µM (≈ 0.554 to 1.11 µg/mL).

**Q.** And the “Secondary pharmacology hits IC50” value [14]?
**A.** Its value is “No significant hits”.

**Q.** And the “in vitro safety profiling” value [14]?
**A.** The value was “no major safety liabilities”.
